Data on 1 compound can be found in patent US20220315572A1, “SUBSTITUTED CYANOPYRROLIDINES WITH ACTIVITY AS USP30 INHIBITORS” (MISSION THERAPEUTICS LIMITED, priority 2019, published 2022).

One series has as its system TK6 cells. Briefly: In vitro micronucleus assay. The settings on record: 27 hours recovery. The series is classed as cell-based. How it is done: The micronucleus assay may be used to determine if a compound is genotoxic by evaluating the presence of micronuclei. Micronuclei may contain chromosome fragments produced from DNA breakage (clastogens) or whole chromosomes produced by disruption of the mitotic apparatus (aneugens).
Example 1 was assessed in the bacterial reverse mutation assay (Ames) and in vitro micronucleus assay. All in vitro tests were conducted with and without exogenous metabolic activation using concentrations up to those limited by cytotoxicity or insolubility.
Induction of chromosome damage was assessed using the in vitro micronucleus assay in TK6 cells. Example 1 was negative for induction of micronuclei when incubated for 3 hours in the presence of exogenous metabolic activation followed by 27 hours recovery, and also when incubated for 27 hours in the absence of exogenous metabolic activation followed by 27 hours recovery.

Another series can be described thus: Mouse plasma stability. The series is classed as in vitro ADME. The conditions noted are these: read-out: Stability Mouse plasma t1/2. An excerpt:
Other parameters that may be measured using standard assays that are indicative of a compound's exposure profile include, for example plasma stability (half-life measurement), blood AUC, Cmax, Cmin and Tmax values.

A further series has as its system UUO injured kidneys. The experiment in a line: Unilateral ureteral obstructive kidney disease model (UUO). The series is classed as in vivo, C57BL/6 mice. The conditions noted are these: 10 days. An excerpt:
(f) The unilateral ureteral obstructive kidney disease model (UUO). [Chevalier et al, 2009, Kidney Int 75(11): 1145-1152] UUO causes renal injury characterised by tubular cell injury, interstitial inflammation and fibrosis. It serves as a model of irreversible post-renal acute kidney injury (AKI). Experimental UUO has illustrated the molecular mechanisms of apoptosis, inflammation and fibrosis, all of which are key processes in renal injury, regardless of the primary insult. Consequently, the UUO model provides investigators information beyond obstruction. Example 1 was assessed in the UUO model to determine the ability of the compound to attenuate progressive tubulointerstitial fibrosis and chronic kidney disease (CKD). On day 1 of the study, adult C57BL/6 mice were dosed by oral gavage according to one of the following dosing regimens; Vehicle or 5 mg/kg Example 1 BID. Two hours post dosing on day 1 study mice underwent surgery to ligate the left ureter at two points. Successful UUO surgery was later confirmed by observation of dilation of renal pelvis due to hydronephrosis. The animals were dosed according to their prescribed regimen for 10 days at which point kidneys were harvested, or histopathology assessment and for protein/RNA assessment. […]

As to `C[C@@H]1C[C@@H](NC(=O)c2nnc(-c3cccc(C#N)c3)o2)CN1C#N` [Example 1, N-((3R,5R)-1-Cyano-5-methylpyrrolidin-3-yl)-5-(3-cyanophenyl)-1,3,4-oxadiazole-2-carboxamide], the induction of micronuclei entry in the series with TK6 cells (3 hours in the presence of exogenous metabolic activation) and in the series with TK6 cells (27 hours in the absence of exogenous metabolic activation) was “negative” in each case. The half-life in the series “Mouse plasma stability” was > 33.3 h. The “α-SMA levels in UUO injured kidneys” value in the series with UUO injured kidneys (5 mg/kg oral BID, compared to vehicle treated controls) is recorded as “statistically reduced α-SMA levels”. Moreover, the “collagen deposition, picrosirius red staining in ligated kidneys” value in the series with UUO injured kidneys (5 mg/kg p.o. BID) is recorded as “statistically reduced collagen deposition”.
